Reference: US20260108546A1 (ELI LILLY AND COMPANY, priority 2024, published 2026)

Molecular target: T1, hGIP-R (Homo sapiens, UniProt P48546)
T1 construct: expressed in transfected cells; host or cells: HEK-293 clonal cell lines
T1 sequence (P48546 22-466): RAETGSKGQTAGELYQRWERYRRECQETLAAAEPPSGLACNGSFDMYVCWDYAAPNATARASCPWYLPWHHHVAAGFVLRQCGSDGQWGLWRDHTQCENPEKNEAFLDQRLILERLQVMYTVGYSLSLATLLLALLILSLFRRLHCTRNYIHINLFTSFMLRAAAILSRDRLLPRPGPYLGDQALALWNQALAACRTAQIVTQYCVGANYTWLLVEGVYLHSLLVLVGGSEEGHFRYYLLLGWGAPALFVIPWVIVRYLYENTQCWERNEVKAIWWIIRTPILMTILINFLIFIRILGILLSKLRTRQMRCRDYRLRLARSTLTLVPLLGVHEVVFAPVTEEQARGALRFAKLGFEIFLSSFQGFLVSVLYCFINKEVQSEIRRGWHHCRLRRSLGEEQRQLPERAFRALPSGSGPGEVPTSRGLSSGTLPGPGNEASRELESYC
Experiment: Functional hGIP-R Assay (cAMP formation, HTRF)
Format: cell-based
Conditions: for Emax: cAMP efficacy, percent of maximal response to GIP(1-42)OH, 37° C., 0.1% bovine casein, arithmetic mean ± SEM; for EC50: cAMP potency, HEK-293 cells expressing hGIP-R, incubated at 37° C. in the presence of 0.1% bovine casein, geometric mean, read-out: Human GIP-R EC50, nM (SEM, n)
Method: Functional activity was determined using CAMP formation in HEK-293 clonal cell lines expressing hGIP-R. hGIP-R receptor expressing cells were treated with compound (20 point concentration-response curve in DMSO, 2-fold Labcyte Echo direct dilution, 384 well plate Corning Cat #3570) in DMEM (Gibco Cat #31053) supplemented with 1× GlutaMAX™ (Gibco Cat #35050), 0.1% bovine casein (Sigma C4765-10ML), 250 μM IBMX (3-Isobutyl-1-methylxanthine, Acros Cat #228420010) and 20 mM HEPES (Gibco Cat #15630) in a 20 μL assay volume (final DMSO concentration was 1%). After a 30 min incubation at 37° C., the resulting increase in intracellular cAMP was quantitatively determined using the Revvity CAMP Dynamic 2 HTRF Assay Kit (62AM4PEJ). Briefly, cAMP levels within the cell were detected by adding the cAMP-d2 conjugate in cell lysis buffer (10 μL) followed by the antibody anti-cAMP-Eu^3+-Cryptate, also in cell lysis buffer (10 μL). The resulting competitive assay was incubated for at least 60 min at RT, then detected using a BMG Labtech PHERAstar FSX instrument with excitation at 320 nm and emission at 665 nm and 620 nm. PHERAstar units (emission at 665 nm/620 nm*10,000) are inversely proportional to the amount of cAMP present and were converted to nM cAMP per well using a CAMP standard curve. The amount of cAMP generated (nM) in each well was converted to a percent of the maximal response observed with human GIP (1-42) OH. A relative EC50 value and percent top (Emax) were derived by non-linear regression analysis using the percent maximal response vs. the concentration of compound added, fitted to a four-parameter logistic equation.

| Emax | EC50 | Compound |
| --- | --- | --- |
| 123 ± 4.24% | 22.6 nM | Cn1cc(C[C@@H](NC(=O)[C@H]2C[C@@H]2c2ccc(-c3cnc4nn(C)cc4c3)cc2)C(=O)NC(C)(C)Cn2nc(C(F)(F)F)cc2-c2ccn(C3CCOC3)n2)cn1 (mixture of isomers) [Example 53, (1S,2S)-N-((R)-1-((2-Methyl-1-(1-((RS)-tetrahydrofuran-3-yl)-5′-(trifluoromethyl)-1H,2′H-[3,3′-bipyrazol]-2′-yl)propan-2-yl)amino)-3-(1-methyl-1H-pyrazol-4-yl)-1-oxopropan-2-yl)-2-(4-(2-methyl-2H-pyrazolo[3,4-b]pyridin-5-yl)phenyl) cyclopropane-1-carboxamide, mixture of 2 diastereomers] |
| 112 ± 0.275% | 49.7 nM | Cn1cc(C[C@@H](NC(=O)[C@H]2C[C@@H]2c2ccc(-c3cnc4nn(C)cc4c3)cc2)C(=O)NC(C)(C)Cn2nc(C(F)(F)F)cc2-n2nccn2)cn1 (single isomer, unassigned) [Example 13] |
| 120 ± 5.11% | 0.234 nM | CN1CCC(n2cc(C(F)(F)F)nc2CC(C)(C)NC(=O)[C@@H](Cc2cnn(C(F)F)c2)N2CC[C@@]3(C[C@@H]3c3ccc(-c4cnc5nc(C6CC6)cn5c4)cc3Cl)C2=O)C1=O (single isomer, unassigned) [Example 146] |
| 116 ± 2.13% | 0.359 nM | CC(C)(Cn1nc(C(F)(F)F)cc1-c1ccn(C2CC2)c(=O)c1)NC(=O)[C@@H](Cc1cnn(C(F)F)c1)N1CCC2(CC2c2ccc(-c3cnc4nc(C5CC5)cn4c3)nc2C2CC2)C1=O (single isomer, unassigned) [Example 166] |
| 92.1 ± 0.883% | 0.753 nM | Cc1cn2cc(-c3ccc(C4CC45CCN([C@H](Cc4cnn(C(F)F)c4)C(=O)NC(C)(C)Cn4nc(C(F)(F)F)cc4-c4ccn(C6CC6)c(=O)c4)C5=O)c(C4CC4)n3)cnc2n1 (single isomer, unassigned) [Example 167] |
| 15.2 ± 1.27% | 15.2 nM | Cn1cc(-c2cc(C(F)(F)F)nn2CC(C)(C)NC(=O)[C@@H](Cc2cnn(C(F)F)c2)N2CCC3(CC3c3ccc4cnn(C)c4c3)C2=O)cc(F)c1=O (single isomer, unassigned) [Example 184] |
| 69.2 ± 0.431% | 6.84 nM | Cn1cc2cc(-c3ccc([C@H]4C[C@@]45CCN([C@H](Cc4cnn(C(F)F)c4)C(=O)NC(C)(C)Cn4nc(C(F)(F)F)cc4-c4cc(F)c(=O)n(C)c4)C5=O)c(F)c3)cnc2n1 (single isomer, unassigned; isomer 1) [Example 99] |
| 59.6 ± 0.0693% | 58.5 nM | Cc1cn2cc(-c3ccc([C@H]4C[C@@]45CCN([C@H](Cc4cnn(C(F)F)c4)C(=O)NC(C)(C)Cn4nc(C(F)(F)F)cc4-c4cnc(C6CC6)nc4)C5=O)cc3)cnc2n1 (single isomer, unassigned; isomer 1) [Example 101] |
| 69.4 ± 0.0734% | 50.9 nM | Cc1cn2cc(-c3ccc([C@H]4C[C@@]45CCN([C@H](Cc4cnn(C(F)F)c4)C(=O)NC(C)(C)Cn4nc(C(F)(F)F)cc4-c4cnc(C(F)(F)F)nc4)C5=O)cc3)cnc2n1 (single isomer, unassigned; isomer 1) [Example 102] |
| 73.3 ± 6.2% | 99.6 nM | CN1CC2C=C(c3ccc([C@H]4C[C@@]45CCN([C@H](Cc4cnn(C(F)F)c4)C(=O)NC(C)(C)Cn4nc(C(F)(F)F)cc4-c4cnc(C(F)(F)F)nc4)C5=O)cc3)C=NC2C1=O (single isomer, unassigned; isomer 1) [Example 103] |
| 89 ± 1.12% | 54.6 nM | Cn1cc(-c2cc(C(F)(F)F)nn2CC(C)(C)NC(=O)[C@@H](Cc2cnn(C(F)F)c2)N2CC[C@@]3(C[C@@H]3c3ccc(-c4cnc5nc(C(C)(C)O)ccc5c4)cc3)C2=O)ccc1=O (single isomer, unassigned; isomer 1) [Example 104] |
| 8.43 ± 1.23% | 49.8 nM | COc1cc2cc(-c3ccc([C@H]4C[C@@]45CCN([C@H](Cc4cnn(C(F)F)c4)C(=O)NC(C)(C)Cn4nc(C(F)(F)F)cc4-c4ccc(=O)n(C)c4)C5=O)cc3)cnc2nc1C (single isomer, unassigned; isomer 1) [Example 105] |
| 77.3 ± 7.69% | 36.3 nM | CN1CC(n2cc3cc(-c4ccc([C@H]5C[C@@]56CCN([C@H](Cc5cnn(C(F)F)c5)C(=O)NC(C)(C)Cn5nc(C(F)(F)F)cc5-c5cc(F)c(=O)n(C)c5)C6=O)c(F)c4)cnc3n2)C1 (single isomer, unassigned; isomer 1) [Example 106] |
| 108 ± 0.709% | 36.2 nM | Cn1cc(-c2cc(C(F)(F)F)nn2CC(C)(C)NC(=O)[C@@H](Cc2cnn(C(F)F)c2)N2CC[C@@]3(C[C@@H]3c3ccc(-c4cnc5nn(CCO)cc5c4)cc3F)C2=O)cc(F)c1=O (single isomer, unassigned; isomer 1) [Example 107] |
| 81.7 ± 1.63% | 0.47 nM | Cc1cn2cc(-c3ccc(C4CC45CCN([C@H](Cc4cnn(C(F)F)c4)C(=O)NC(C)(C)Cn4nc(C(F)(F)F)cc4-c4cc(F)c(=O)n(C)c4)C5=O)c(C(F)F)c3)cnc2n1 (single isomer, unassigned; isomer 1) [Example 108] |
| 50.8 ± 1.54% | 4.34 nM | Cc1cn2cc(-c3ccc(C4CC45CCN([C@H](Cc4cnn(C(F)F)c4)C(=O)NC(C)(C)Cn4nc(C(F)(F)F)cc4-c4cnc(C)nc4)C5=O)c(C)n3)cnc2n1 (single isomer, unassigned; isomer 1) [Example 110] |
| 28 ± 0.197% | 6.75 nM | Cc1ncc(-c2cc(C(F)(F)F)nn2CC(C)(C)NC(=O)[C@@H](Cc2cnn(C(F)F)c2)N2CCC3(CC3c3ccc(-c4cnc5nn(C)cc5c4)nc3C)C2=O)cn1 (single isomer, unassigned; isomer 1) [Example 111] |
| 62 ± 0.9% | 3.21 nM | Cc1ncc(-c2cc(C(F)(F)F)nn2CC(C)(C)NC(=O)[C@@H](Cc2cnn(C(F)F)c2)N2CCC3(CC3c3ccc(-c4cnc5nn(C)cc5c4)nc3C(F)(F)F)C2=O)cn1 (single isomer, unassigned; isomer 1) [Example 112] |
| 45.5 ± 2.18% | 1.22 nM | Cn1cc2cc(-c3ccc(C4CC45CCN([C@H](Cc4cnn(C(F)F)c4)C(=O)NC(C)(C)Cn4nc(C(F)(F)F)cc4-c4ccc(=O)n(C)c4)C5=O)c(C(F)(F)F)n3)cnc2n1 (single isomer, unassigned; isomer 1) [Example 113] |
| 80.3 ± 0.191% | 1.79 nM | [2H]C([2H])([2H])n1cc(C[C@H](C(=O)NC(C)(C)Cn2nc(C(F)(F)F)cc2-c2cnc(C)nc2)N2CC[C@@]3(C[C@@H]3c3ccc(-c4cnc5nn(C)cc5c4)cc3Cl)C2=O)cn1 (single isomer, unassigned; isomer 1) [Example 114] |
| 87.3 ± 0.526% | 4.65 nM | [2H]C([2H])([2H])n1cc(C[C@H](C(=O)NC(C)(C)Cn2nc(C(F)(F)F)cc2-c2cnc(C)nc2)N2CCC3(CC3c3ccc(-c4cnc5nn(C)cc5c4)nc3C(F)(F)F)C2=O)cn1 (single isomer, unassigned; isomer 1) [Example 115] |
| 23.1 ± 0.52% | 127 nM | CC(=O)N1CCN(c2ccc(C3CC34CCN([C@H](Cc3cnn(C(F)F)c3)C(=O)NC(C)(C)Cn3nc(C(F)(F)F)cc3-c3cnc(C)nc3)C4=O)c(C(F)(F)F)n2)CC1 (single isomer, unassigned; isomer 1) [Example 116] |
| 59.3 ± 1.52% | 4.02 nM | Cn1cc2cc(-c3ccc([C@H]4C[C@@]45CCN([C@H](Cc4cnn(C(F)F)c4)C(=S)NC(C)(C)Cn4nc(C(F)(F)F)cc4-c4cc(F)c(=O)n(C)c4)C5=O)c(F)c3)cnc2n1 (single isomer, unassigned; isomer 1) [Example 118] |
